# Measured values from PMC7796187, “New Bioactive Peptides Identified from a Tilapia Byproduct Hydrolysate Exerting Effects on DPP-IV Activity and Intestinal Hormones Regulation after Canine Gastrointestinal Simulated Digestion” (Molecules, 2020).
# Where a SMILES comes first, the peptide text is derived from it. Where no end group is shown, it is not given here.
# Tested on: murine GLUTag cells
# Assay: not given
# Set-up: method as in earlier work
# Details: α-actinin-2 sequences; cited from earlier work
row,Compound,GLP-1 secretion stimulation
1,KPYIL,able to stimulate the GLP-1 secretion in murine GLUTag cells
2,ASDKPYIL [α-actinin-2 derived peptide],also active

# Tested on: STC-1 cells
# Assay: not given
# Set-up: method as in PMID 32516710
# Details: peptides from egg white SGID intestinal digest; cited from earlier work
row,Compound,CCK secretion stimulation
1,VLLPDEVSGL [peptide from egg white SGID intestinal digest],able to stimulate CCK secretion in STC-1 cells
2,VLLPD,able to stimulate CCK secretion in STC-1 cells

# Tested on: EECs
# Assay: not given
# Set-up: method as in PMID 28460928, doi:10.1016/j.jff.2017.06.047
# Details: hemorphins from bovine hemoglobin digestion; cited from earlier work
row,Compound,CCK secretion stimulation
1,VVYPWT,CCK and GLP-1 secretion stimulating peptides
2,LLVVYPWT [hemorphin released during bovine hemoglobin digestion],CCK and GLP-1 secretion stimulating peptides
3,VVYPWTQRF [hemorphin released during bovine hemoglobin digestion],CCK and GLP-1 secretion stimulating peptides
4,LVVYPWT [hemorphin released during bovine hemoglobin digestion],CCK and GLP-1 secretion stimulating peptides

# Molecular target: T1, Caco-2 DPP-IV activity (Homo sapiens, UniProt P27487)
# T1 construct: In situ method using confluent Caco-2 cells described by Caron et al. was slightly modified and used to study DPP-IV activity; host or cells: Caco-2 cells, live and confluent, 7 days after seeding
# T1 sequence (P27487 whole entry): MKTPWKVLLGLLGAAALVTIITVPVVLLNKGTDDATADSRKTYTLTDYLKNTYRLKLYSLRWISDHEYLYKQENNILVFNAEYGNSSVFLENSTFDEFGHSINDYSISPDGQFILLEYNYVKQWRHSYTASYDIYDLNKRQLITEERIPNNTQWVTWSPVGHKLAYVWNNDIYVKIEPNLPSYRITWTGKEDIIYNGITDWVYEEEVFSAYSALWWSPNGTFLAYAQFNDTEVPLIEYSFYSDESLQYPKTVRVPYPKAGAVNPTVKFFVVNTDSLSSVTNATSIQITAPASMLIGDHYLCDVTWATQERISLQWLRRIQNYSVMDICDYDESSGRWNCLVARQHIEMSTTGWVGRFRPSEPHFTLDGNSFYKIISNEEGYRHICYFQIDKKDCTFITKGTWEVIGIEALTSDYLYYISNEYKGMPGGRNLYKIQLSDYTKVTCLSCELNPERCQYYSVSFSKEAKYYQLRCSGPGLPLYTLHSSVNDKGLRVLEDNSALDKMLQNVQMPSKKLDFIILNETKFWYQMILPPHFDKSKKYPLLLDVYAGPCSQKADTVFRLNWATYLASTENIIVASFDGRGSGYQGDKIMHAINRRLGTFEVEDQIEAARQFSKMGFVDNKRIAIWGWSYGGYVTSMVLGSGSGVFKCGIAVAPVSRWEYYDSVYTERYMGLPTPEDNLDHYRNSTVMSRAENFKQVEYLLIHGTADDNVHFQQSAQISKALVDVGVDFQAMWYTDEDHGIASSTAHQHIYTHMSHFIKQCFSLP
# Assay: In situ DPP-IV activity inhibition using live confluent Caco-2 cells (Gly-Pro-AMC substrate)
# Format: cell-based
# Details: synthetic peptides identified in basolateral side, read-out: In Situ IC50 (DPP-IV inhibitory activity)
# Experimental: (§1) Cells were grown in flask of 75 cm^2 at 37 °C, 5% CO2 atmosphere in DMEM supplemented with 4.5 g L^−1 of glucose, 10% of fetal bovine serum, 100 U mL^−1 of penicillin, 100 µg mL^−1 of streptomycin and 2 mM of L-glutamine. Caco-2 and STC-1 cells were weekly and twice a week subcultured, respectively. All cells used in this study were between the 40 and the 50 passages for Caco-2 cells and between the 10 and 30 passages for STC-1 cells.
# In situ method using confluent Caco-2 cells described by Caron et al. was slightly modified and used to study DPP-IV activity. A 1 mM (Gly-Pro-AMC) substrate solution, the digests and the synthetic peptides dilutions were prepared in phosphate saline buffer pH 7.4 (PBS). Briefly, after 7 days of growth, Caco-2 cells were trypsinized and seeded at a density of 8000 cells/well in 96-well optical black plates (Nunc, ThermoFisher Scientific, Rochester, NY, USA). After 7 days, culture media were removed from wells and the cells were washed with 100 µL of PBS buffer (pH 7.4). […] After 5 min of incubation at 37 °C, 50 µL of (Gly-Pro-AMC) substrate solution were added to each well. Fluorescence was recorded every 2 min for 1 h at 37 °C using a Xenius XC spectrofluorometer (Safas Monaco, Monaco). Excitation wavelength was set to […] while the emission wavelength was of 480 nm. The percentage of the DPP-IV activity inhibition was defined as the percentage of DPP-IV activity inhibited by a given concentration of digest or diprotin A (commercial DPP-IV peptide inhibitor) as positive control compared with control buffer response. […] IC50 was expressed in mg mL^−1 or in mM.
row,IC50,Compound
1,2.16 mM,CSSGGY [CSSGGY]
2,> 2.5 mM,CC(C)C[C@H](NC(=O)[C@H](CC(=O)O)NC(=O)[C@@H]1CCCN1)C(=O)N[C@H](C(=O)O)C(C)C [PDLV] (H-PDLV-OH)
3,> 2.5 mM,VDAGAP [VDAGAP]
4,> 2.5 mM,CC(C)C[C@H](NC(=O)[C@@H]1CCCN1C(=O)[C@@H](N)CC(=O)O)C(=O)N[C@H](C(=O)O)C(C)C [DPLV] (H-DPLV-OH)
5,> 2.5 mM,C[C@@H](O)[C@H](NC(=O)[C@H](Cc1ccc(O)cc1)NC(=O)[C@H](CC(=O)O)NC(=O)[C@@H](N)CCC(=O)O)C(=O)O [EDYT] (H-EDYT-OH; N-terminus and C-terminus assumed)
6,> 2.5 mM,CSSGK [CSSGK]
7,> 2.5 mM,C[C@@H](O)[C@H](NC(=O)[C@H](CC(=O)O)NC(=O)[C@@H](N)CCC(=O)O)C(=O)N[C@@H](Cc1ccc(O)cc1)C(=O)O [EDTY] (H-EDTY-OH; N-terminus and C-terminus assumed)
8,2.27 mM,VAPEEHPT

# Tested on: DPP-IV
# Assay: In vitro (biochemical) DPP-IV inhibitory activity test
# Details: synthetic peptides identified in basolateral side
row,IC50,Compound
1,> 2.5 mM,C[C@@H](O)[C@H](NC(=O)[C@H](Cc1ccc(O)cc1)NC(=O)[C@H](CC(=O)O)NC(=O)[C@@H](N)CCC(=O)O)C(=O)O [EDYT] (H-EDYT-OH; N-terminus and C-terminus assumed)
2,0.603 mM,VADTMEVV
3,> 2.5 mM,C[C@@H](O)[C@H](NC(=O)[C@H](CC(=O)O)NC(=O)[C@@H](N)CCC(=O)O)C(=O)N[C@@H](Cc1ccc(O)cc1)C(=O)O [EDTY] (H-EDTY-OH; N-terminus and C-terminus assumed)

# Tested on: STC-1 cells
# Assay: Active GLP-1 secretion in STC-1 cells, radioimmunoassay of supernatant
# Format: cell-based
# Details: 1 mM, 2 h, versus buffer control
# Experimental: as §1, with “The Caco-2 cell line was purchased from Sigma-Aldrich (Villefranche-sur-Saône, France) and the STC-1 cell line was a grateful gift received from Corinne Grangette (Univ. Lille, CNRS, Inserm, CHU Lille, Institut Pasteur de Lille, U1019-UMR 8204-CIIL, France). Cells” for “Cells”
# When 80–90% confluence was reached, STC-1 cells were trypsinized and seeded at a density of 40,000 cells/well in 24-wells culture plates (ThermoFisher Scientific, Saint Aubin, France) allowing to reach 60–80% confluence. Cell culture medium was removed from each well and cells were washed with phosphate saline buffer (PBS, 10 mM, pH 7.4). 250 µL of digests (2 to 10 mg mL^−1) or synthetic peptides (1 mM) diluted in Hepes buffer (4.5 mM KCl, 1.2 mM CaCl2, 140 mM NaCl and 20 mM Hepes, pH 7.4) were then added. Hepes buffer was used as a negative control. […]
row,Compound,active GLP-1 release stimulation by synthetic peptide
1,LKPT,able to significantly stimulate active-GLP-1 release
2,ELLK,did not lead to GLP-1 secretion

# Tested on: EECs
# Assay: not given
# Details: cited from earlier work
row,Compound,GLP-1 secretion stimulation
1,LGG,able to stimulate GLP-1 secretion
2,GGGG,able to stimulate GLP-1 secretion
3,GPVRGPFPIIV [literature GLP-1 stimulating peptide],able to stimulate GLP-1 secretion
4,AAAA,able to stimulate GLP-1 secretion
5,GWGG,able to stimulate GLP-1 secretion

# Same assay, conditions: egg white protein digest peptides; cited from earlier work
row,Compound,GLP-1 secretion stimulation
1,PFL,able to stimulate GLP-1 secretion
2,RVASMASEKM [peptide from egg white protein digest],GLP-1 secretagogue

# Same assay, conditions: hemorphins from bovine hemoglobin digestion; cited from earlier work
row,Compound,GLP-1 secretion stimulation
1,VVYPWT,CCK and GLP-1 secretion stimulating peptides
2,LLVVYPWT [hemorphin released during bovine hemoglobin digestion],CCK and GLP-1 secretion stimulating peptides
3,VVYPWTQRF [hemorphin released during bovine hemoglobin digestion],CCK and GLP-1 secretion stimulating peptides
4,LVVYPWT [hemorphin released during bovine hemoglobin digestion],CCK and GLP-1 secretion stimulating peptides

# Same assay, conditions: sequences from bovine hemoglobin intestinal digest; cited from earlier work
row,Compound,GLP-1 secretion stimulation
1,TKAVEH,able to stimulate the secretion of GLP-1
2,ANVST,able to stimulate the secretion of GLP-1
3,KAAVT,able to stimulate the secretion of GLP-1
4,YGAE,able to stimulate the secretion of GLP-1
